Reference: patent US20030073872A1, “Hexameric complexes and their preparation” (priority 2001, published 2003)

Assay: NMR check of guest exchange in a sealed tube heated to 150° C.
Format: physicochemical
Details: sealed NMR tube heated to 150° C., about 1.4 atmospheres, d^6-acetone
Description: Nuclear magnetic resonance (NMR) spectroscopic investigations were carried out to verify the existence of the spheroidal hexamer in solution. […] FIG. […] The enlarged inset in FIG. 3 is the region of the spectrum displaying the methanol resonances. The peak assignments a, b, and c in the enlarged inset are for diaryl C—H, CH3 of the methanol guest, and CH3 of the methanol in the bulk solvent, respectively. Peak assignments d, e, and f are for the CH2 moiety adjacent to CH in the bridging group, the remaining CH2 groups, and the terminal CH3 group, respectively, on the R substituent. Peak g is the TMS internal standard.
The most significant features in the spectrum of FIG. 3 are the two methanol peaks, b and c, indicating, respectively, the methanol trapped within the hexameric spheroidal assembly and the methanol in the bulk solvent. Similar work was carried out in d^6-acetone, d^6-dimethyl sulfoxide, and d^8-toluene.

stability of guest/host assembly (methanol guest does not exchange with bulk solvent): stable
Substance: C-tridecylpyrogallol(4)arene
